Results on three compounds are retold here after paper PMC11324046, “Second-generation piperazine derivatives as promising radiation countermeasures” (RSC Medicinal Chemistry, 2024).

Read-outs that look alike come from different tables or passages of the source.

Data set [1] is described as follows: WST-1 proliferation assay, Jurkat. It is filed as cell-based. The following applies: human, Jurkat cells (acute T-cell leukemia), vs 0.1% DMSO control = 100%, mean ± standard deviation. As for the experimental part:
(§1) A thorough analysis of antiproliferative activity was performed across various cell culture types representing different histotypes: leukemia (Jurkat, MOLT-4), lung adenocarcinoma (A549), colorectal adenocarcinoma (HT-29), pancreatic carcinoma (PANC-1), breast adenocarcinoma (MCF-7), osteosarcoma (SAOS-2), and one non-cancerous cell line (fetal lung fibroblasts MRC-5). The cell lines were exposed to the newly synthesized compounds at a concentration of 100 μM for 48 h in a single-dose treatment. Changes in cell proliferation compared to the vehicle 0.1% dimethyl sulfoxide (DMSO) control were determined using the WST-1 assay, which is based on mitochondrial dehydrogenase metabolic activities. […] The overall cytotoxic activity of each compound was expressed as growth percent (GP) – the mean of the proliferation of all cell lines treated with the same compound.
(§2) Selected human tumor and non-tumor cell lines Jurkat (acute T-cell leukemia), MOLT-4 (acute lymphoblastic leukemia), A549 (lung carcinoma), HT-29 (colorectal adenocarcinoma), PANC-1 (pancreas epithelioid carcinoma), MCF-7 (breast adenocarcinoma), SAOS-2 (osteosarcoma) and MRC-5 (normal lung fibroblasts) were purchased from either American Type Culture Collection (ATCC; VA, USA) or Sigma-Aldrich (St. Louis, MO, USA) and cultured according to the provider's culture method guidelines. All cell lines were maintained at 37 °C in a humidified 5% carbon dioxide and 95% air incubator. Cells in the maximum range of either 10 passages for the adherent cell lines (A549, HT-29, PANC-1, MCF-7, SAOS-2, and MRC-5), or 20 passages for suspension cell lines (Jurkat, MOLT-4,) and in an exponential growth phase were used for this study. Screening of the antiproliferative effect and growth percent calculation were conducted as follows: each cell line was seeded at previously established optimal density (1–50 × 10^3 cells per well) in a 96-well plate (TPP, Trasadingen, Switzerland) and cells were allowed to settle overnight. Cells were treated for 48 h with compounds at a final concentration of 100 μM. At the end of the cultivation period, the WST-1 proliferation assay (Roche, Basel, Switzerland) was performed according to the manufacturer's protocol. The absorbance was measured at 440 nm using a Tecan Spark multimode microplate reader (Tecan, Mannedorf, Switzerland). Each value is the mean of three independent experiments and represents the percentage of proliferation (100% cell proliferation for 0.1% DMSO mock-treated control cells). The GP value was calculated for each compound tested. GP represents the mean of the percentage proliferation decrease of all cell lines treated with the same compound.

Data set [2] can be described thus: WST-1 proliferation assay, A549. It is filed as cell-based. As to conditions: human, A549 cells (lung carcinoma), vs 0.1% DMSO control = 100%, mean ± standard deviation. As for the experimental part: as §1, §2
A short description of data set [3]: WST-1 proliferation assay, PANC-1. The data set is classed as cell-based. The following applies: human, PANC-1 cells (pancreas epithelioid carcinoma), vs 0.1% DMSO control = 100%, mean ± standard deviation. As to the method:
as §1, §2

Data set [4] is described as follows: WST-1 proliferation assay, MCF-7. The data set is classed as cell-based. As to conditions: human, MCF-7 cells (breast adenocarcinoma), vs 0.1% DMSO control = 100%, mean ± standard deviation. As to the method: as §1, §2
Background: Tetrazolium assays rely on reduction of a dye to a coloured formazan, in cell work by metabolically active cells.

The nature of data set [5]: in vitro. The following applies: male, human. As for the experimental part:
(§3) To represent the overall inhibitory activity of each compound, viability was calculated as the mean of at least three independent measurements. The purpose was to determine the optimal non-toxic concentration for subsequent use in radioprotection tests.
(§4) Whole blood from a healthy donor was diluted 1 : 1 with Dulbecco's phosphate buffered saline (Sigma-Aldrich, St. Louis, MO, USA). The diluted blood was slowly and carefully pipetted onto an equal volume of Histopaque®-1077 (Sigma-Aldrich, St. Louis, MO, USA). The entire process was carried out at room temperature. Subsequently, centrifugation was performed at 700 × g with the slowest acceleration and deceleration for 20 min at 20 °C. The resulting PBMCs ring was aspirated and centrifuged at 450 × g for 10 min at 20 °C with normal acceleration and deceleration. The cells were washed twice with RPMI 1640 medium with GlutaMAX (Gibco by Thermo Fisher Scientific, Waltham, MA, USA). After the second wash and centrifugation, the cells were diluted with cultivation medium RPMI 1640 with GlutaMAX supplemented with 20% inactivated fetal bovine serum (both Gibco by Thermo Fisher Scientific, Waltham, MA, USA) and 1% antibiotic solution of penicillin, 10 000 IU ml^−1 and streptomycin, 10 mg ml^−1 (Sigma-Aldrich, St. Louis, MO, USA). At the end, the cells were counted using Türk's solution.
(§5) PBMCs were plated into 96-well plates at a cell density of approximately 5 × 10^4 cells per well in a volume of 100 μl. Cells were treated with tested compounds in concentrations of 10, 20, 50, 100, 200, 500, and 1000 μM to determine the optimal non-toxic concentration for each. Cells were incubated for 48 h in a humidified atmosphere with 5% CO2 at 37 °C. 20 μl of MTS – CellTiter 96® AQueous One Solution Cell Proliferation Assay (Promega, Madison, WI, USA) was added to each well 4 h before spectrometric analysis. Cell viability was then determined by measuring absorbance at 490 nm using the Synergy H1 instrument by BioTek. The absorbance of the cell-free culture medium was used as a blank and subtracted from the absorbance readings obtained during the experiment. The viability of untreated control cells was set as 100%.

The subject of data set [6] is PBMCs. Briefly: in vitro. As to conditions: 48 h. As to the method: as §3, §4, §5
For data set [7], the system named is MOLT-4 cells. Briefly: Annexin V/PI flow cytometry viability of irradiated MOLT-4 cells. The following applies: Homo sapiens, 2 h pretreatment, 2 Gy, 24 h; for viability at 200 µM: representative histogram Fig. 6A (2 Gy alone 27 %). It is filed as cell-based, human. As for the experimental part:
Consequently, we investigated whether the pre-application of these substances can augment the survival of MOLT-4 cells after irradiation exposure. The radioprotective investigation utilized a leukemia MOLT-4 cell model of hematopoietic origin with flow cytometric quantification of cell viability via annexin V/propidium iodide staining.
In the following step, at 24 h after irradiation, MOLT-4 cell viability and cell death were determined by flow cytometry using an Alexa Fluor® 488 annexin V/Dead Cell Apoptosis kit (Life Technologies, Grand Island, NY, USA) following the manufacturer's instructions. The Alexa Fluor®488 annexin V/Dead Cell Apoptosis kit employs the property of Alexa Fluor®488 conjugated to annexin V to bind to phosphatidylserine in the presence of Ca^2+; and the ability of propidium iodide to enter cells with damaged cell membranes and bind to DNA. For each sample, a minimum of 20 000 events were acquired using a CytoFLEX LX flow cytometer (Beckman Coulter, Miami, FL, USA). List mode data were analyzed using Kaluza Analysis 2.1 software (Beckman Coulter, Miami, FL, USA).
A general note: Flow cytometry measures light scatter and fluorescence of single cells or particles in a stream.

Setting [8] is: MOLT-4, representative histogram Fig. 5A (2 Gy alone 26 %), read-out: Viable (annexin V/PI negative) MOLT-4 cells, compound + 2 Gy.
Setting [9] is: MOLT-4, read-out: Viable (annexin V/PI negative) MOLT-4 cells, compound + 2 Gy.
Setting [10] is: peripheral blood mononuclear cells (PBMCs).

With `O=[N+]([O-])c1ccc(OCC(O)CN2CCN(CCO)CC2)c(F)c1` (stereo not shown) [Compound 3, 1-(4-(2-Hydroxyethyl)piperazin-1-yl)-3-(2-fluoro-4-nitrophenoxy)propan-2-ol], in data set [1], the viability at 48 h, 100 µM worked out at 92 ± 4%. In data set [2], the viability at 48 h, 100 µM stood at 106 ± 11%. Moreover, the viability at 48 h, 100 µM in data set [3] came to 90 ± 4%. Moreover, in data set [4], the viability at 48 h, 100 µM amounted to 91 ± 12%. In data set [5], the viability at 48 h, 10 µM was 98 ± 5%; the viability at 48 h, 20 µM amounted to 95 ± 14%; the viability at 48 h, 50 µM is 90 ± 9%; the viability at 48 h, 100 µM came to 92 ± 6%. Moreover, in data set [5], the viability at 48 h, 200 µM was 92 ± 5%; the viability at 48 h, 500 µM is 92 ± 9%; the viability at 48 h, 1000 µM is 81 ± 11%. In addition, the “Optimal non-toxic concentration (PBMC viability not below 100% at 0.05 significance level and higher than 90%)” value in data set [6] (male, human) is 500 µM. Besides, in data set [7] (setting [8]), the viability at 100 µM is 31%. In addition, the viability at 200 µM in data set [7] (setting [9]) was found to be 35%.
With `COc1ccc(OCC(O)CN2CCN(CCO)CC2)c([N+](=O)[O-])c1` (stereo not shown) [Compound 2, 1-(4-(2-Hydroxyethyl)piperazin-1-yl)-3-(4-methoxy-2-nitrophenoxy)propan-2-ol], in data set [1], the viability at 48 h, 100 µM turned out to be 98 ± 3%. In addition, the viability at 48 h, 100 µM in data set [2] is 111 ± 11%. The viability at 48 h, 100 µM in data set [3] was 104 ± 3%. For the same compound, the viability at 48 h, 100 µM in data set [4] came out at 97 ± 8%. In addition, in data set [5], the viability at 48 h, 10 µM was 102 ± 12%; the viability at 48 h, 20 µM was 100 ± 11%; the viability at 48 h, 50 µM came out at 99 ± 6%; the viability at 48 h, 100 µM stood at 98 ± 8%. In data set [5], the viability at 48 h, 200 µM came out at 99 ± 11%; the viability at 48 h, 500 µM was 93 ± 3%; the viability at 48 h, 1000 µM turned out to be 78 ± 4%. Also, in data set [6] (male, human), the “Optimal non-toxic concentration (PBMC viability not below 100% at 0.05 significance level and higher than 90%)” value stood at 500 µM. Besides, in data set [7] (setting [8]), the viability at 100 µM came out at 35%. In addition, the viability at 200 µM in data set [7] (setting [9]) stood at 36%.
Regarding `NCCCNCCSP(=O)(O)O` [WR2721, amifostine, reference compound], the viability at 48 h, 100 µM in data set [1] was found to be 10 ± 12%. The viability at 48 h, 100 µM in data set [2] is 5%. Moreover, the viability at 48 h, 100 µM in data set [3] amounted to 8 ± 4%. Also, the viability at 48 h, 100 µM in data set [4] is 7 ± 2%. In data set [5] (setting [10]), the viability at 48 h, 10 µM was 93 ± 17%; the viability at 48 h, 20 µM stood at 75 ± 30%; the viability at 48 h, 50 µM turned out to be 37 ± 9%; the viability at 48 h, 100 µM came to 33 ± 12%. In data set [5] (setting [10]), the viability at 48 h, 200 µM was 35 ± 17% and the viability at 48 h, 500 µM came out at 37 ± 20%. Besides, the “Change of PBMC viability (in words)” value in data set [6] (20 μM) is “significant decrease”. For the same compound, the “Optimal non-toxic concentration (PBMC viability not below 100% at 0.05 significance level and higher than 90%)” value in data set [6] (PBMCs, MTS) was found to be 10 µM. The viability at 100 µM in data set [7] (MOLT-4, light or radiation study, annexin V/PI negative cells, read-out: Viability rate of MOLT-4 cells relative to 2 Gy irradiation alone (100%)) is 106%. Moreover, the viability at 100 µM in data set [7] (setting [8]) is 28%. Besides, the viability at 200 µM in data set [7] (setting [9]) is 22%.
